From ChEMBL document CHEMBL4507282, “Data for DCP probe BI-1950” (2021)

Experiments:
[1] = molecular target: Rhodopsin kinase GRK7 (Homo sapiens) (UniProt Q8WTQ7); settings: Compound concentration 1000.0 nM
[2] = molecular target: MAP/microtubule affinity-regulating kinase 4 (Homo sapiens) (UniProt Q96L34); settings: Compound concentration 1000.0 nM
[3] = molecular target: Phosphatidylinositol 4,5-bisphosphate 3-kinase catalytic subunit beta isoform (Homo sapiens) (UniProt P42338); settings: Compound concentration 1000.0 nM
[4] = molecular target: Glycogen synthase kinase-3 alpha (Homo sapiens) (UniProt P49840); settings: Compound concentration 1000.0 nM
[5] = molecular target: Inhibitor of nuclear factor kappa-B kinase subunit beta (Homo sapiens) (UniProt O14920); settings: Compound concentration 1000.0 nM
[6] = tested on: Phosphatidylinositol 4,5-bisphosphate 3-kinase catalytic subunit alpha isoform (Homo sapiens), P42336 [H1047L]; settings: Compound concentration 1000.0 nM
[7] = molecular target: Death-associated protein kinase 2 (Homo sapiens) (UniProt Q9UIK4); settings: Compound concentration 1000.0 nM
[8] = molecular target: Calcium/calmodulin-dependent protein kinase kinase 1 (Homo sapiens) (UniProt Q8N5S9); settings: Compound concentration 1000.0 nM
[9] = molecular target: Testis-specific serine/threonine-protein kinase 3 (Homo sapiens) (UniProt Q96PN8); settings: Compound concentration 1000.0 nM
[10] = molecular target: Ribosomal protein S6 kinase alpha-2 (Homo sapiens) (UniProt Q15349); settings: Compound concentration 1000.0 nM
[11] = tested on: Tyrosine-protein kinase ABL1 (Homo sapiens), P00519 [F317I]; settings: Compound concentration 1000.0 nM
[12] = molecular target: Phosphatidylinositol 4-kinase beta (Homo sapiens) (UniProt Q9UBF8); settings: Compound concentration 1000.0 nM
[13] = molecular target: Serine/threonine-protein kinase PLK3 (Homo sapiens) (UniProt Q9H4B4); settings: Compound concentration 1000.0 nM
[14] = tested on: Mast/stem cell growth factor receptor Kit (Homo sapiens), P10721 [L576P]; settings: Compound concentration 1000.0 nM
[15] = molecular target: Serine/threonine-protein kinase Chk2 (Homo sapiens) (UniProt O96017); settings: Compound concentration 1000.0 nM
[16] = molecular target: Serine/threonine-protein kinase Nek11 (Homo sapiens) (UniProt Q8NG66); settings: Compound concentration 1000.0 nM
[17] = molecular target: Ribosomal protein S6 kinase alpha-5 (Homo sapiens) (UniProt O75582); settings: Compound concentration 1000.0 nM
[18] = molecular target: Serine/threonine-protein kinase SIK2 (Homo sapiens) (UniProt Q9H0K1); settings: Compound concentration 1000.0 nM
[19] = molecular target: Dual specificity protein kinase CLK4 (Homo sapiens) (UniProt Q9HAZ1); settings: Compound concentration 1000.0 nM
[20] = molecular target: Ephrin type-B receptor 3 (Homo sapiens) (UniProt P54753); settings: Compound concentration 1000.0 nM
[21] = molecular target: Receptor-interacting serine/threonine-protein kinase 1 (Homo sapiens) (UniProt Q13546); settings: Compound concentration 1000.0 nM
[22] = tested on: Epidermal growth factor receptor (Homo sapiens), P00533 [UNDEFINED MUTATION]; settings: Compound concentration 1000.0 nM
[23] = molecular target: Cyclin-dependent kinase 14 (Homo sapiens) (UniProt O94921); settings: Compound concentration 1000.0 nM
[24] = molecular target: Protein-tyrosine kinase 2-beta (Homo sapiens) (UniProt Q14289); settings: Compound concentration 1000.0 nM
[25] = molecular target: Mitogen-activated protein kinase kinase kinase 2 (Homo sapiens) (UniProt Q9Y2U5); settings: Compound concentration 1000.0 nM
[26] = molecular target: TGF-beta receptor type-2 (Homo sapiens) (UniProt P37173); settings: Compound concentration 1000.0 nM
[27] = molecular target: Non-receptor tyrosine-protein kinase TYK2 (Homo sapiens) (UniProt P29597); settings: Compound concentration 1000.0 nM
[28] = molecular target: Transient receptor potential cation channel subfamily M member 6 (Homo sapiens) (UniProt Q9BX84); settings: Compound concentration 1000.0 nM
[29] = molecular target: MAP kinase-interacting serine/threonine-protein kinase 1 (Homo sapiens) (UniProt Q9BUB5); settings: Compound concentration 1000.0 nM
[30] = molecular target: Tyrosine-protein kinase Tec (Homo sapiens) (UniProt P42680); settings: Compound concentration 1000.0 nM
[31] = molecular target: Mitogen-activated protein kinase 3 (Homo sapiens) (UniProt P27361); settings: Compound concentration 1000.0 nM
[32] = tested on: Mast/stem cell growth factor receptor Kit (Homo sapiens), P10721 [A829P]; settings: Compound concentration 1000.0 nM
[33] = molecular target: Serine/threonine-protein kinase ULK2 (Homo sapiens) (UniProt Q8IYT8); settings: Compound concentration 1000.0 nM
[34] = molecular target: Tyrosine-protein kinase JAK1 (Homo sapiens) (UniProt P23458); settings: Compound concentration 1000.0 nM
[35] = molecular target: Dual specificity tyrosine-phosphorylation-regulated kinase 2 (Homo sapiens) (UniProt Q92630); settings: Compound concentration 1000.0 nM
[36] = molecular target: Mu-type opioid receptor (Homo sapiens) (UniProt P35372); settings: Compound concentration 10.0 uM
[37] = molecular target: T1, D(4) dopamine receptor (Homo sapiens) (UniProt P21917); settings: Compound concentration 10.0 uM
T1 sequence (whole entry): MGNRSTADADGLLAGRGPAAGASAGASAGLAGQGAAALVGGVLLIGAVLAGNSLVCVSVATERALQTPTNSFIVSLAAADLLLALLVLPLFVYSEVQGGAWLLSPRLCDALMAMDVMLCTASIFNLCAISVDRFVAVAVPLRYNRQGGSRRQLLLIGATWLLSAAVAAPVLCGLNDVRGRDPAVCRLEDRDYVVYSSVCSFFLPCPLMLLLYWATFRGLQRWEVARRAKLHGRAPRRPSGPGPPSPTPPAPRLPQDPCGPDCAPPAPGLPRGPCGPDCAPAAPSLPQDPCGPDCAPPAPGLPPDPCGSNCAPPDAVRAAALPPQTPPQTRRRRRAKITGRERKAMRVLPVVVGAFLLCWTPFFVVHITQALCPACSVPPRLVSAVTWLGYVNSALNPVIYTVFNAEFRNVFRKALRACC

[38] = molecular target: Serine/threonine-protein kinase OSR1 (Homo sapiens) (UniProt O95747); settings: Compound concentration 1000.0 nM
[39] = molecular target: Cyclin-dependent kinase 4 (Homo sapiens) (UniProt P11802); settings: Compound concentration 1000.0 nM

Sequence of Phosphatidylinositol 4,5-bisphosphate 3-kinase catalytic subunit alpha isoform (Homo sapiens), P42336 [H1047L] (P42336 whole entry H1047L, canonical isoform): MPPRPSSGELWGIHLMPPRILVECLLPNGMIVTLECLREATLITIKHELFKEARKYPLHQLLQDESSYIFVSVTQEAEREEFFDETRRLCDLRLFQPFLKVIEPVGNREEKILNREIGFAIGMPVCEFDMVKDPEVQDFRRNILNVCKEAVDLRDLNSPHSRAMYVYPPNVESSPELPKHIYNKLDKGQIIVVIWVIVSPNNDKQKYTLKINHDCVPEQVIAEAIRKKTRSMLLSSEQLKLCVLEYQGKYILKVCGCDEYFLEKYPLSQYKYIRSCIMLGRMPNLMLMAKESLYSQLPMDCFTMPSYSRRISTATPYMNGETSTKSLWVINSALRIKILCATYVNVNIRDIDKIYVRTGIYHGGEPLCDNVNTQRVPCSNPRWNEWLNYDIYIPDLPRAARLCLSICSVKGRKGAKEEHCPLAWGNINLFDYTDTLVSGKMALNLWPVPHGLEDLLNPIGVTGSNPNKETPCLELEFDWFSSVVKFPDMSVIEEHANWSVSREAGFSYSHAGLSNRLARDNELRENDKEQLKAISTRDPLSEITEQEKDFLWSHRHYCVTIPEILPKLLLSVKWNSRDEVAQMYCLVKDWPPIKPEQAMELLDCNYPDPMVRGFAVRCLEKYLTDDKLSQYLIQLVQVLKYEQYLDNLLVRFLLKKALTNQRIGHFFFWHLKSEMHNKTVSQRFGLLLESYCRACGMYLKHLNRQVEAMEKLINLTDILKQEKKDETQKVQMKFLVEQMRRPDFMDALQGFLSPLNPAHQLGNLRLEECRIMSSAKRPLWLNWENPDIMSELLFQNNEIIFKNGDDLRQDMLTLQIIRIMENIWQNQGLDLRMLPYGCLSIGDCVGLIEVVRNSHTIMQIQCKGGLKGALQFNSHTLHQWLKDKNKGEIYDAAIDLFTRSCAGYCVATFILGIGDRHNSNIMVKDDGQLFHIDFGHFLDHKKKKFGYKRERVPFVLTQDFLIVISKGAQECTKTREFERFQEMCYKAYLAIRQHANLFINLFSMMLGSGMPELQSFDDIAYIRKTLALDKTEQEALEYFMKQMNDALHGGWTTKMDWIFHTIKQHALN
Sequence of Epidermal growth factor receptor (Homo sapiens), P00533 [UNDEFINED MUTATION] (P00533 whole entry, looked up, change not shown): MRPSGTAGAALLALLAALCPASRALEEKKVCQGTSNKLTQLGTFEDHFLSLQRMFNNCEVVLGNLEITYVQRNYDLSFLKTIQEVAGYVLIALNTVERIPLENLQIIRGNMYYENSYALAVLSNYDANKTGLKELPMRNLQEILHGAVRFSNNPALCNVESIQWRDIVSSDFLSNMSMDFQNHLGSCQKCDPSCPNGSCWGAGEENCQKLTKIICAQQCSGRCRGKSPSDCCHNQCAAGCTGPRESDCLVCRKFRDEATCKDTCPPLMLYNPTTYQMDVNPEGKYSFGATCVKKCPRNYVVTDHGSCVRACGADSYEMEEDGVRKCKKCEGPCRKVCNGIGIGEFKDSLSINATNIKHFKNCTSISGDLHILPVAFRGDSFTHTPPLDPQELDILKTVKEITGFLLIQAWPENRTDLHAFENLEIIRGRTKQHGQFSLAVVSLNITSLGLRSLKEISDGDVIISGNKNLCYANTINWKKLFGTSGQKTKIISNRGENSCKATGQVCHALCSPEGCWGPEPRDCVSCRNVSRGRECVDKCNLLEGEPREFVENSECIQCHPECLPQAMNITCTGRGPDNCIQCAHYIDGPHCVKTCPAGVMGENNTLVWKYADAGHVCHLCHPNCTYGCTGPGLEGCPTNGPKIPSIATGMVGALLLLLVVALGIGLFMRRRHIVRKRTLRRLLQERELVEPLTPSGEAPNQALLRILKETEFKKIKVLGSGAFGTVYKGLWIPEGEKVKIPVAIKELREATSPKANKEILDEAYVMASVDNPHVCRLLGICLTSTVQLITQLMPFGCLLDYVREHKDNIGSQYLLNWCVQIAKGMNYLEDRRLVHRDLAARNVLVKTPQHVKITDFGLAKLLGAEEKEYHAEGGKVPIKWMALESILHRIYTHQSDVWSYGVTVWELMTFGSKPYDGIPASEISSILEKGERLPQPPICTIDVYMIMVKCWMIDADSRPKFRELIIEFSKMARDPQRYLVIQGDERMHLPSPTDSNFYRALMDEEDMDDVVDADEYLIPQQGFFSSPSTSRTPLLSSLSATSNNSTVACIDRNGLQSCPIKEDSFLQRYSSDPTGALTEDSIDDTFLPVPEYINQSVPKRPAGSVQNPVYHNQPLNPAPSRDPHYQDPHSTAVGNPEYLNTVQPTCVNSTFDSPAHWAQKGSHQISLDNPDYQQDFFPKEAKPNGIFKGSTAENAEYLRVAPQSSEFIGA
Sequence of TGF-beta receptor type-2 (Homo sapiens) (P37173 whole entry): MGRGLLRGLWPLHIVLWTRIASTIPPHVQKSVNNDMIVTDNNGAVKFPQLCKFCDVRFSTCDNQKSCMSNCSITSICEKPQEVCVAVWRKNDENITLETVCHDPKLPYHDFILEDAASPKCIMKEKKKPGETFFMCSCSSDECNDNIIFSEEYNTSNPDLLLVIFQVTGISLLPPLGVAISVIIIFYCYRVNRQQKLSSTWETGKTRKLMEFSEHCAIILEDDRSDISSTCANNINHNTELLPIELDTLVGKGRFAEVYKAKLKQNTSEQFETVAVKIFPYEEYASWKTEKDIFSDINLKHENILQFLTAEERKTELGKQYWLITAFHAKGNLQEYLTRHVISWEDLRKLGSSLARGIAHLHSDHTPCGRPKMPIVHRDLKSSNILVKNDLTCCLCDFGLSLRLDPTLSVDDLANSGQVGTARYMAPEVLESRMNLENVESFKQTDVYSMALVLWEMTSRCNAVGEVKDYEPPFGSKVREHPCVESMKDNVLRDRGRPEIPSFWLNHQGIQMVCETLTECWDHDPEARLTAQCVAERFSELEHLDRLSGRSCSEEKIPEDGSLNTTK
Sequence of Tyrosine-protein kinase ABL1 (Homo sapiens), P00519 [F317I] (P00519 whole entry F317I): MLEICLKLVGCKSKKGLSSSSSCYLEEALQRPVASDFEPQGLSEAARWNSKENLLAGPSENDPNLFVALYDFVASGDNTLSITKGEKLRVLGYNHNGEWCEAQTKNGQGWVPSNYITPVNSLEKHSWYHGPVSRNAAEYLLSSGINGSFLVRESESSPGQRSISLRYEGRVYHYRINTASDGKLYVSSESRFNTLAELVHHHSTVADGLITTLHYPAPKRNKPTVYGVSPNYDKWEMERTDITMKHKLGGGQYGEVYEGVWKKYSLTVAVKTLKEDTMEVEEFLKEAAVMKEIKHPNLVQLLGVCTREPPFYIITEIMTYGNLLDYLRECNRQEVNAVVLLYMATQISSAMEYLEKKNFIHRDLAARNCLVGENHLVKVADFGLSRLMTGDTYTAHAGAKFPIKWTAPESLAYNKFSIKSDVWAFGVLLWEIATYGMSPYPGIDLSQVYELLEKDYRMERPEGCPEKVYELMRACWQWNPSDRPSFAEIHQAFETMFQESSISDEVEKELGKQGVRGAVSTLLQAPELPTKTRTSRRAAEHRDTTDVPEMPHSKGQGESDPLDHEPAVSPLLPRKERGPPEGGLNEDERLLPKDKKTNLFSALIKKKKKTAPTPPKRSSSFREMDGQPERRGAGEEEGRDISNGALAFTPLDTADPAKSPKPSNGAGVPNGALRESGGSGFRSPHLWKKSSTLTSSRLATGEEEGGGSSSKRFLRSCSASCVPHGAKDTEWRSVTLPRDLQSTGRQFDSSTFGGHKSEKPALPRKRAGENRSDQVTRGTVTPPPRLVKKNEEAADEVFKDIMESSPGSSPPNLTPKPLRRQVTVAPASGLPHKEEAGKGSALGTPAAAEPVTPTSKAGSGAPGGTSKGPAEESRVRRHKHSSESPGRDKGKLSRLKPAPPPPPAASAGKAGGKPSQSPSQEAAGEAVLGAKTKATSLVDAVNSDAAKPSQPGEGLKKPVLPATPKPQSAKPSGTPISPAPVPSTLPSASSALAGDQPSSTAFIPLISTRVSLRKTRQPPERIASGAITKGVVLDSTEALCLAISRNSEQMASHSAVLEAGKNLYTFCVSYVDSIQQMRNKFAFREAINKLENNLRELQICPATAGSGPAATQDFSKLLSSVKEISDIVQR
Sequence of Serine/threonine-protein kinase PLK3 (Homo sapiens) (Q9H4B4 whole entry, looked up): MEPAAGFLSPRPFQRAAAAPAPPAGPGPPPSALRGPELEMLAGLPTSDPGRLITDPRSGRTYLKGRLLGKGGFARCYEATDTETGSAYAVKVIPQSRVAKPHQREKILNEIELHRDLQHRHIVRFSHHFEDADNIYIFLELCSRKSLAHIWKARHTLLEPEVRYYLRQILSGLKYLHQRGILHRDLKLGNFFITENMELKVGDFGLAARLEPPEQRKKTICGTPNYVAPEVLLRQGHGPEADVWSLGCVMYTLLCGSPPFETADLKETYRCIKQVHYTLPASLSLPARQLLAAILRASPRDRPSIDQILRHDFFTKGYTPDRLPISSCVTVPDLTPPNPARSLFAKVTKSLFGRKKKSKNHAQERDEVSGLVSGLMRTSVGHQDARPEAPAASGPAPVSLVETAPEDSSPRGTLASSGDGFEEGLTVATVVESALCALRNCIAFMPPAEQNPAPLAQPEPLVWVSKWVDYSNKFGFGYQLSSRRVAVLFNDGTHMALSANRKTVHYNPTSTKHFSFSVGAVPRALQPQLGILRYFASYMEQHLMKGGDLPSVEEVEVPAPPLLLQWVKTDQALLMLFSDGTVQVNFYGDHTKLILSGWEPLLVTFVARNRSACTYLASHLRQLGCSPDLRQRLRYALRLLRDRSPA
Sequence of Mu-type opioid receptor (Homo sapiens) (P35372 whole entry): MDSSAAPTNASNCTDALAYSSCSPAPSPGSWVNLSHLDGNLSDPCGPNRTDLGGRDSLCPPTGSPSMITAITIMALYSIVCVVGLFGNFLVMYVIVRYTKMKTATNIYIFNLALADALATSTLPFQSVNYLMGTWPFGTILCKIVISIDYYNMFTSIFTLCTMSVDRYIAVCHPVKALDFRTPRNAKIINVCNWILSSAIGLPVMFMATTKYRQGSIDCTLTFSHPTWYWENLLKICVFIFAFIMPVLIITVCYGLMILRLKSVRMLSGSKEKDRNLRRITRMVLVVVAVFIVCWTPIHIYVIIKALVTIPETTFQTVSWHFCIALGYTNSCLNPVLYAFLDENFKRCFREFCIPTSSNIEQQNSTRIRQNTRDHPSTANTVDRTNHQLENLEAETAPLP

Row | SMILES | residual activity [1] [%] | residual activity [2] [%] | residual activity [3] [%] | residual activity [4] [%] | residual activity [5] [%] | residual activity [6] [%] | residual activity [7] [%] | residual activity [8] [%] | residual activity [9] [%] | residual activity [10] [%] | residual activity [11] [%] | residual activity [12] [%] | residual activity [13] [%] | residual activity [14] [%] | residual activity [15] [%] | residual activity [16] [%] | residual activity [17] [%] | residual activity [18] [%] | residual activity [19] [%] | residual activity [20] [%] | also measured
1 | C[C@H](NC(=O)c1cnc2n1[C@](C)(Cc1ccc(C#N)cc1)C(=O)N2c1cc(Cl)c(F)c(Cl)c1)C(=O)NC1(c2ccccn2)CC1 [BI 1950] | 100 | 100 | 99 | 100 | 90 | 81 | 100 | 100 | 100 | 94 | 100 | 100 | 81 | 83 | 100 | 100 | 96 | 100 | 88 | 100 | residual activity [21]: 100%; residual activity [22]: 100%; residual activity [23]: 100%; residual activity [24]: 100%; residual activity [25]: 100%; residual activity [26]: 100%; residual activity [27]: 100%; residual activity [28]: 100%; residual activity [29]: 93%; residual activity [30]: 75%; residual activity [31]: 91%; residual activity [32]: 100%; residual activity [33]: 100%; residual activity [34]: 100%; residual activity [35]: 98%; inhibition [36]: 17.4%; inhibition [37]: -2.68%; residual activity [38]: 94%; residual activity [39]: 100%
2 | C[C@@]1(Cc2ccc(C#N)cc2)C(=O)N(c2cc(Cl)cc(Cl)c2)c2ncc(C(=O)NC3(c4nc(C5CCC5)no4)CC3)n21 [BI 9446] | 100 | 100 | 97 | 100 | 100 | 96 | 84 | 100 | 100 | 99 | 94 | 100 | 100 | 100 | 100 | 100 | 100 | 100 | 97 | 99 | residual activity [21]: 100%; residual activity [22]: 97%; residual activity [23]: 100%; residual activity [24]: 100%; residual activity [25]: 100%; residual activity [26]: 99%; residual activity [27]: 100%; residual activity [28]: 0%; residual activity [29]: 100%; residual activity [30]: 92%; residual activity [31]: 86%; residual activity [32]: 100%; residual activity [33]: 100%; residual activity [34]: 100%; residual activity [35]: 93%; inhibition [36]: 31.1%; inhibition [37]: 13.6%; residual activity [38]: 84%; residual activity [39]: 93%
